This note sets out measurements from patent US6566074B1, “Methods of modulating cell attachment and migration” (The General Hospital Corporation, priority 1999, dated 2003).

The test has as its system FN−/−fibroblasts. In kind it is cell-based, mouse. The settings on record: Rho experiment: substrate 120 kDa CBD of fibronectin; substance added as supplement (Figs 5B-5D).

Lysophosphatidic acid [LPA]: the “% of attached cells that assemble focal adhesions and actin stress fibers (spread morphology)” value is reported as 95%.
